Patent publication US20220135538A1, “P300/CBP HAT INHIBITORS AND METHODS FOR THEIR USE” (Constellation Pharmaceuticals, Inc., priority 2019, published 2022)

Molecular target: T1, p300 HAT domain (residues 1287-1666) (Homo sapiens, UniProt Q09472)
T1 construct: The p300 HAT domain (residues 1287-1666) was expressed; His tag (N); made in house; host or cells: Escherichia coli
T1 sequence (Q09472 1287-1666): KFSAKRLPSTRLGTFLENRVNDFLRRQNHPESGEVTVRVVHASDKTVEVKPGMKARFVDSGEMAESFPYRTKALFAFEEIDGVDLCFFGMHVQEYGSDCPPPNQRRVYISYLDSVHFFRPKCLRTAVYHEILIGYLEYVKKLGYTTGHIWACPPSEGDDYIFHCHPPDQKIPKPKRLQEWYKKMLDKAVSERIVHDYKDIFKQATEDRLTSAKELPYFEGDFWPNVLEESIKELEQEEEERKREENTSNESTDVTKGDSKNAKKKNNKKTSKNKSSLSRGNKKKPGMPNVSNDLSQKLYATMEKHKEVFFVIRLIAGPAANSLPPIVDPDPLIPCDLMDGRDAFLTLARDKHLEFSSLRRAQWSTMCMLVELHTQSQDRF
Test: P300 HAT SPA assay (scintillation proximity, acetylation of biotinylated H3(1-21) peptide)
Type: biochemical
Conditions: 6 nM p300-HAT domain; average of at least 2 replicate titrations
Protocol: The activity of the compounds described herein as p300/CBP HAT inhibitors may be readily determined using a scintillation proximity assay (SPA) methodology (Udenfriend, S.; Gerber, L.; Nelson, N. Scintillation Proximity Assay: A Sensitive and Continuous Isotopic Method for Monitoring Ligand/Receptor and Antigen/Antibody Interactions. Anal. Biochem. 1987, 161, 494-500).
In a typical experiment the p300 HAT inhibitory activity of the compounds described herein was determined in accordance with the following experimental method.
The p300 HAT domain (residues 1287-1666) was expressed and purified with an N-terminal His tag from Escherichia coli cells. The expressed protein was purified by Ni2+affinity, followed by anion exchange chromatography. Appropriate fractions were pooled and buffer exchanged into 20 mM Hepes pH 7.5, 150 mM NaCl, and 1 mM TCEP.
Compounds of interest solubilized in DMSO were stamped in a Greiner black 384-well plate in a 10-point duplicate dose response using an Echo 550 (Labcyte). p300-HAT domain purified in-house (aa 1287-1666) was diluted to 6 nM in reaction buffer (50 mM Tris pH 8.0, 100 mM NaCl, 1 mM DTT, 0.069 mM Brij-35, 0.1 mM EDTA, 0.1 mg/mL BSA), combined with 4.14 μM AcCoA (Sigma-Aldrich) and 0.46 μM ^3H-AcCoA (PerkinElmer), and 12.5 μL added to each well and incubated for 30 min at RT. Reactions were initiated with 12.5 μL 2 μM biotinylated H3(1-21) peptide (New England Peptide) and run for 1 hr at RT, then quenched with 20 μL stop solution (200 mM Tris pH 8.0, 200 mM EDTA, 2M NaCl, 160 μM anacardic acid). 35 μL of the reaction volume was transferred to a 384-well streptavidin FlashPlate (PerkinElmer) using a Bravo liquid handler (Velocity 11) and incubated for 1.5 hr at RT. Plates were aspirated, washed with 95 μL wash buffer (15 mM Tris pH 8.5, 0.069 μM Brij-35), aspirated, sealed, and scintillation counts read on a Topcount (PerkinElmer). Data were analyzed in Genedata to determine inhibitor IC50 values.

Row | SMILES | IC50
1 | Cc1cnc(Oc2ccc(NC(=O)C(NCCc3ccc(C#N)cc3)c3ccccc3)nc2)nc1 (single isomer, unassigned) [22 Isomer 1] | > 2000 nM
2 | CC(=O)N1CCC[C@H](Oc2ccc(NC(=O)C(NCCc3ccc(C#N)cc3)c3ccccc3)nc2)C1 (single isomer, unassigned) [15 Isomer 2] | > 2000 nM
3 | N#Cc1ccc(CCNC(C(=O)Nc2ccc(OCCN3CCOC3=O)cn2)c2ccccc2)cc1 (single isomer, unassigned) [19 Isomer 2] | > 2000 nM
4 | CN1CC(Oc2ccc(NC(=O)C(NCCc3ccc(Cl)cc3)c3ccccc3)nc2)CCC1=O (single isomer, unassigned) [10 Isomer 4] | > 2000 nM
5 | CC(CNC(C(=O)Nc1ccc(Oc2cnn(C)c2)cn1)c1ccccc1)c1ccc(C#N)cc1 (single isomer, unassigned) [17 Isomer 2] | > 2000 nM
6 | CC(=O)N1CC(Oc2ccc(NC(=O)C(NCC(C)c3ccc(C#N)cc3)c3cnn(C)c3)nc2)C1 (single isomer, unassigned) [24 Isomer 3] | > 2000 nM
7 | CC(=O)N1CCC[C@@H](Oc2ccc(NC(=O)C(NCCc3ccc(C#N)cc3)c3ccccc3)nc2)C1 (single isomer, unassigned) [16 Isomer 2] | > 2000 nM
8 | CC(=O)N1CC(Oc2ccc(NC(=O)C(NC[C@@H](C)c3ccc(C#N)cc3)c3ccccc3)nc2)C1 (single isomer, unassigned) [2 Isomer 2] | > 2000 nM
9 | CC(=O)N1CC(Oc2ccc(NC(=O)C(NCC(C)c3ccc(C#N)cc3)c3cnn(C)c3)nc2)C1 (single isomer, unassigned) [24 Isomer 4] | > 2000 nM
10 | CC(CNC(C(=O)Nc1ccc(OC2CCN(C(=O)C3CC3)CC2)cn1)c1ccccc1)c1ccc(C#N)cc1 (single isomer, unassigned) [20 Isomer 1] | > 2000 nM

The next lines start with the values.

Row | IC50 | SMILES
11 | > 2000 nM | CC(=O)N1CC[C@@H](Oc2ccc(NC(=O)C(NCCc3ccc(C#N)cc3)c3ccccc3)nc2)C1 (single isomer, unassigned) [14 Isomer 2]
12 | 164 nM | CC(=O)N1CCC[C@@H](Oc2ccc(NC(=O)C(NCCc3ccc(C#N)cc3)c3ccccc3)nc2)C1 (single isomer, unassigned) [16 Isomer 1]
13 | > 2000 nM | CC(CNC(C(=O)Nc1ccc(OC2CN(C(=O)C3CC3)C2)cn1)c1ccccc1)c1ccc(C#N)cc1 (single isomer, unassigned) [21 Isomer 2]
14 | 272 nM | CC(=O)N1CCC[C@H](Oc2ccc(NC(=O)C(NCCc3ccc(C#N)cc3)c3ccccc3)nc2)C1 (single isomer, unassigned) [15 Isomer 1]
15 | > 2000 nM | CN1CC(Oc2ccc(NC(=O)C(NCCc3ccc(Cl)cc3)c3ccccc3)nc2)CN(C)C1=O (single isomer, unassigned) [3 Isomer 1]
16 | > 2000 nM | CC(CNC(C(=O)Nc1ccc(Oc2cnn(C)c2)cn1)c1ccccc1)c1ccc(C#N)cc1 (single isomer, unassigned) [17 Isomer 4]
17 | 578 nM | CC(=O)N1CC(Oc2ccc(NC(=O)C(NCC(C)c3ccc(C#N)cc3)c3cnn(C)c3)nc2)C1 (single isomer, unassigned) [24 Isomer 2]
18 | 36.2 nM | CC(=O)N1CC[C@@H](Oc2ccc(NC(=O)C(NCCc3ccc(C#N)cc3)c3ccccc3)nc2)C1 (single isomer, unassigned) [14 Isomer 1]
19 | 965 nM | CC(=O)N1CC(Oc2ccc(NC(=O)C(NCC(C)c3ccc(C#N)cc3)c3cccc(F)c3)nc2)C1 (single isomer, unassigned) [23 Isomer 2]
20 | 63 nM | CN1CCC(Oc2ccc(NC(=O)C(NCCc3ccc(C#N)cc3)c3ccccc3)nc2)C1=O (single isomer, unassigned) [12 Isomer 2]
21 | 91.4 nM | N#Cc1ccc(CCNC(C(=O)Nc2ccc(O[C@@H]3CCOC3)cn2)c2ccccc2)cc1 (single isomer, unassigned) [4 Isomer 1]
22 | 117 nM | CN1CC(Oc2ccc(NC(=O)C(NCCc3ccc(Cl)cc3)c3ccccc3)nc2)CN(C)C1=O (single isomer, unassigned) [3 Isomer 2]
23 | 56.6 nM | N#Cc1ccc(CCNC(C(=O)Nc2ccc(OCCN3CCOC3=O)cn2)c2ccccc2)cc1 (single isomer, unassigned) [19 Isomer 1]
